Source: publication PMC8989868, “Structural mechanism of TRPM7 channel regulation by intracellular magnesium” (Cellular and Molecular Life Sciences: CMLS, 2022)

Target: T1, mouse TRPM7 (Mus musculus, UniProt Q923J1)
T1 construct: full-length channel-kinase, untagged, in bicistronic pIRES2-EGFP, transiently expressed in HEK293T cells; homotetramer
Assay: whole-cell patch clamp, current at +[…] mV
Type: cell-based
Conditions: external NS8593, inhibitor; Mg2+-free intracellular solution; pH 7.2

T1 sequence (Q923J1 whole entry): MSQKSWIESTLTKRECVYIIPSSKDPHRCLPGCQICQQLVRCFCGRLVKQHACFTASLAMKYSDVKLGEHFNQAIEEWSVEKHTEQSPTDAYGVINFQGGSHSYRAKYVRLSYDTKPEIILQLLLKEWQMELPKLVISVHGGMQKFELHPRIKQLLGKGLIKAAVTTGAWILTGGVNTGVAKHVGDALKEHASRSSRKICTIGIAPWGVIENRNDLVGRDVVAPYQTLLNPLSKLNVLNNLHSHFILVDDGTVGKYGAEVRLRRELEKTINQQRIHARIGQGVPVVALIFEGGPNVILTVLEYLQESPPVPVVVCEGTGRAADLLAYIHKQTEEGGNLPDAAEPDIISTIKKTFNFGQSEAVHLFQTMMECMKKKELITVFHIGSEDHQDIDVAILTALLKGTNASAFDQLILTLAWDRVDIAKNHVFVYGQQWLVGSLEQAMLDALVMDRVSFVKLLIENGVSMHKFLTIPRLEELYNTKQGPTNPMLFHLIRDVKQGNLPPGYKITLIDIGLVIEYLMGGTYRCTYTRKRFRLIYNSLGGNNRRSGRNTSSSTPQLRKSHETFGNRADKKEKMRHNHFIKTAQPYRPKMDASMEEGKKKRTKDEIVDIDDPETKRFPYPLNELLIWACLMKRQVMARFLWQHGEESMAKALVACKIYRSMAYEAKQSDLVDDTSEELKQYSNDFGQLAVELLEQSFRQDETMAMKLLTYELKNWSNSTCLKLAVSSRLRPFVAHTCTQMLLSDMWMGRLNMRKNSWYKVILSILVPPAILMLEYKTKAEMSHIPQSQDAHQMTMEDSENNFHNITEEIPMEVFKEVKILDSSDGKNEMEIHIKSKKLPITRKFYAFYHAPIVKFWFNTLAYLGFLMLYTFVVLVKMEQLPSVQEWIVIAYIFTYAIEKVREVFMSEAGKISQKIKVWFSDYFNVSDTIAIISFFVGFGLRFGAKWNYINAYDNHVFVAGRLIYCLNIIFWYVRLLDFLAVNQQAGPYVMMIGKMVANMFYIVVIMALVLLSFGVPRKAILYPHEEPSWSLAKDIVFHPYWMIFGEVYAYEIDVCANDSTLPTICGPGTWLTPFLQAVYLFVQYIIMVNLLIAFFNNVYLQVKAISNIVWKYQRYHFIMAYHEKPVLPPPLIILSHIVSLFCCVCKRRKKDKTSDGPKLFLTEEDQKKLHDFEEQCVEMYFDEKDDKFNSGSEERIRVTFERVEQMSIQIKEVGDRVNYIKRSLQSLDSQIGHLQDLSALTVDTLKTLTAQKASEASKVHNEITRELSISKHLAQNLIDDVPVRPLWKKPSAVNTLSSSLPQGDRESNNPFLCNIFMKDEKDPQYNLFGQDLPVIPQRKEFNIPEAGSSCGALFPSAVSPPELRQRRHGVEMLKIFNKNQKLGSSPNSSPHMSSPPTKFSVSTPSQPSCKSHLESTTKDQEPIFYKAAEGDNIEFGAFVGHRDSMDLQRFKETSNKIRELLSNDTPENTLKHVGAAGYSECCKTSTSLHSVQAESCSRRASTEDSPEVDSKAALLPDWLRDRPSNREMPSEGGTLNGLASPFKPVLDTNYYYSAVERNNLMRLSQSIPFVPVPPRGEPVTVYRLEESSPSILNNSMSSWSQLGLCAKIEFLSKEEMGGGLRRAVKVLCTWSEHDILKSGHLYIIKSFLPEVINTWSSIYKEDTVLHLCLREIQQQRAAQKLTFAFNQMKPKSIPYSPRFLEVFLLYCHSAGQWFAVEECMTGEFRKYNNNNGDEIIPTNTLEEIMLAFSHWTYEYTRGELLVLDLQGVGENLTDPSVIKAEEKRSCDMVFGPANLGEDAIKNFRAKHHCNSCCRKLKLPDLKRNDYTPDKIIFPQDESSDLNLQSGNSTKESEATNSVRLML

c1ccc2c(c1)CCC[C@H]2Nc1nc2ccccc2[nH]1 [NS8593]
current inhibition at 10 μM: NS8593 caused a rapid inhibition of WT and N1097Q currents
